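Dose response: 5 concentrations. Exposure: 48 h. Format: 96-well plates. Endpoint: linear interpolation; highest concentration if not reached. TGI is the concentration that stops growth completely.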
Assays:
Assay in all cases: DTP human tumour cell line panel, 48 h
SR leukemia = test system: SR leukemia
ACHN renal = test system: ACHN renal
SNB-75 CNS = test system: SNB-75 CNS
M19-MEL melanoma = test system: M19-MEL melanoma
DLD-1 colon = test system: DLD-1 colon
EKVX NSCLC = test system: EKVX NSCLC
CCRF-CEM leukemia = test system: CCRF-CEM leukemia
SF-539 CNS = test system: SF-539 CNS
MALME-3M melanoma = test system: MALME-3M melanoma
SNB-78 CNS = test system: SNB-78 CNS
SF-295 CNS = test system: SF-295 CNS
HCT-15 colon = test system: HCT-15 colon
COLO 205 colon = test system: COLO 205 colon
UACC-257 melanoma = test system: UACC-257 melanoma
MOLT-4 leukemia = test system: MOLT-4 leukemia
KM20L2 colon = test system: KM20L2 colon
SK-MEL-5 melanoma = test system: SK-MEL-5 melanoma
HOP-62 NSCLC = test system: HOP-62 NSCLC
DMS 114 small cell lung = test system: DMS 114 small cell lung
XF 498 CNS = test system: XF 498 CNS
A498 renal = test system: A498 renal
LOX IMVI melanoma = test system: LOX IMVI melanoma
SK-MEL-28 melanoma = test system: SK-MEL-28 melanoma
A549 NSCLC = test system: A549 NSCLC
NCI-H460 lung = test system: NCI-H460 lung
RPMI-8226 leukemia = test system: RPMI-8226 leukemia
HCC-2998 colon = test system: HCC-2998 colon
K-562 leukemia = test system: K-562 leukemia
SF-268 CNS = test system: SF-268 CNS
OVCAR-8 ovarian = test system: OVCAR-8 ovarian
KM12 colon = test system: KM12 colon
IGROV1 ovarian = test system: IGROV1 ovarian
OVCAR-3 ovarian = test system: OVCAR-3 ovarian
M14 melanoma = test system: M14 melanoma
SN12C renal = test system: SN12C renal
NCI-H522 lung = test system: NCI-H522 lung
OVCAR-5 ovarian = test system: OVCAR-5 ovarian
UACC-62 melanoma = test system: UACC-62 melanoma
HOP-18 NSCLC = test system: HOP-18 NSCLC
HOP-92 NSCLC = test system: HOP-92 NSCLC
DMS 273 small cell lung = test system: DMS 273 small cell lung
NCI-H226 lung = test system: NCI-H226 lung
UO-31 renal = test system: UO-31 renal
SNB-19 CNS = test system: SNB-19 CNS
HL-60(TB) leukemia = test system: HL-60(TB) leukemia
SK-OV-3 ovarian = test system: SK-OV-3 ovarian
RXF 393 renal = test system: RXF 393 renal
SW-620 colon = test system: SW-620 colon
OVCAR-4 ovarian = test system: OVCAR-4 ovarian
CAKI-1 renal = test system: CAKI-1 renal
NCI-H23 lung = test system: NCI-H23 lung
TK-10 renal = test system: TK-10 renal
LXFL 529 NSCLC = test system: LXFL 529 NSCLC
HCT-116 colon = test system: HCT-116 colon
HT29 colon = test system: HT29 colon
U251 CNS = test system: U251 CNS
786-0 renal = test system: 786-0 renal

## CC1CC(c2ccc([N+](=O)[O-])cc2)=Nc2ccccc2S1 (configuration not stated)
SR leukemia
  TGI: 24.9 µM
ACHN renal
  TGI: 44.2 µM
SNB-75 CNS
  TGI: > 100 µM
M19-MEL melanoma
  TGI: 26.7 µM
DLD-1 colon
  TGI: 25.5 µM
EKVX NSCLC
  TGI: 48.6 µM
CCRF-CEM leukemia
  TGI: 39.1 µM
SF-539 CNS
  TGI: 32.9 µM
MALME-3M melanoma
  TGI: > 100 µM
SNB-78 CNS
  TGI: > 100 µM
SF-295 CNS
  TGI: 45.3 µM
HCT-15 colon
  TGI: 29.3 µM
COLO 205 colon
  TGI: 55.1 µM
UACC-257 melanoma
  TGI: 35.9 µM
MOLT-4 leukemia
  TGI: 63.6 µM
KM20L2 colon
  TGI: 36.6 µM
SK-MEL-5 melanoma
  TGI: 42.4 µM
HOP-62 NSCLC
  TGI: > 100 µM
DMS 114 small cell lung
  TGI: 36.6 µM
XF 498 CNS
  TGI: 70.7 µM
A498 renal
  TGI: 36.1 µM
LOX IMVI melanoma
  TGI: 20.6 µM
SK-MEL-28 melanoma
  TGI: 32.2 µM
A549 NSCLC
  TGI: 60.1 µM
NCI-H460 lung
  TGI: > 100 µM
RPMI-8226 leukemia
  TGI: 7.21 µM
HCC-2998 colon
  TGI: 38.1 µM
K-562 leukemia
  TGI: 40.3 µM
SF-268 CNS
  TGI: 38.9 µM
OVCAR-8 ovarian
  TGI: > 100 µM
KM12 colon
  TGI: 25.3 µM
IGROV1 ovarian
  TGI: 35.4 µM
OVCAR-3 ovarian
  TGI: 23.7 µM
M14 melanoma
  TGI: 27.2 µM
SN12C renal
  TGI: 35.1 µM
NCI-H522 lung
  TGI: 41.9 µM
OVCAR-5 ovarian
  TGI: 76.1 µM
UACC-62 melanoma
  TGI: 28.8 µM
HOP-18 NSCLC
  TGI: > 100 µM
HOP-92 NSCLC
  TGI: 89.7 µM
DMS 273 small cell lung
  TGI: 41.7 µM
NCI-H226 lung
  TGI: 46.6 µM
UO-31 renal
  TGI: 24.9 µM
SNB-19 CNS
  TGI: 39.5 µM
HL-60(TB) leukemia
  TGI: 36.4 µM
SK-OV-3 ovarian
  TGI: 31 µM
RXF 393 renal
  TGI: 32 µM
SW-620 colon
  TGI: 29.6 µM
OVCAR-4 ovarian
  TGI: 43.9 µM
CAKI-1 renal
  TGI: 83.5 µM
NCI-H23 lung
  TGI: 34.2 µM
TK-10 renal
  TGI: 76.1 µM
LXFL 529 NSCLC
  TGI: 26 µM
HCT-116 colon
  TGI: 3.56 µM
HT29 colon
  TGI: 26.3 µM
U251 CNS
  TGI: 28.4 µM
786-0 renal
  TGI: 29.5 µM
